Consider 19 molecules from patent US8574563B2 (Bristol-Myers Squibb Company, priority 2006, dated 2013).

This assay deals with HCV 1b-377-neo replicon cells. Description: HCV replicon assay, HCV 1b-377-neo replicon cells (1b FRET). It is filed as cell-based, Hepatitis C virus genotype 1b. The note with it: Hepatitis C virus, HCV 1b-377-neo replicon cells; HCV 1b genotype; read-out: EC50 range against HCV 1b (Table 2, Range). The gist of the method: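 Compounds were tested in genotype 1b subgenomic replicon cells carrying a neomycin marker, alongside a matched replicon line with an NS5A Y2065H substitution that confers resistance to a reference NS5A inhibitor.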
On the technique in general: A replicon is a self-replicating genome or part of one, used to study replication in cells.

Regarding `COC(=O)N[C@H](C(=O)N1CCC[C@H]1c1nc(-c2cnc(-c3ccc(-c4cnc([C@@H]5CCCN5C(=O)[C@@H](NC(=O)OC)C5CC5)[nH]4)cc3)nc2)c[nH]1)C1CC1` [Example D75, methyl ((1S)-1-cyclopropyl-2-((2S)-2-(5-(2-(4-(2-((2S)-1-((2S)-2-cyclopropyl-2-((methoxycarbonyl)amino)acetyl)-2-pyrrolidinyl)-1H-imidazol-5-yl)phenyl)-5-pyrimidinyl)-1H-imidazol-2-yl)-1-pyrrolidinyl)-2-oxoethyl)carbamate], the EC50 (as a rule, the concentration at which the effect is half-maximal) is 0.001 to 0.999 nM.

For `CCN(CC)[C@@H](C(=O)N1CCC[C@H]1c1ncc(-c2ccc(-c3ncc(-c4c[nH]c([C@@H]5CCCN5C(=O)[C@@H](NC(=O)OC)C(C)C)n4)cn3)cc2)[nH]1)c1ccccc1` [Example D76], the concentration giving a half-maximal response (EC50) fell in the range of 0.001 to 0.999 nM.

Regarding `CCN(CC)[C@@H](C(=O)N1CCC[C@H]1c1ncc(-c2ccc(-c3ncc(-c4c[nH]c([C@@H]5CCCN5C(=O)[C@H](C)NC(=O)OC)n4)cn3)cc2)[nH]1)c1ccccc1` [Example D77, methyl ((1S)-2-((2S)-2-(5-(2-(4-(2-((2S)-1-((2R)-2-(diethylamino)-2-phenylacetyl)-2-pyrrolidinyl)-1H-imidazol-5-yl)phenyl)-5-pyrimidinyl)-1H-imidazol-2-yl)-1-pyrrolidinyl)-1-methyl-2-oxoethyl)carbamate], the EC50 lay in the range of 0.001 to 0.999 nM.

As to `Cc1[nH]c([C@@H]2CCCN2C(=O)[C@@H](c2ccccc2)N(C)C)nc1-c1ccc(-c2ccc(-c3cnc([C@@H]4CCCN4C(=O)[C@@H](c4ccccc4)N(C)C)[nH]3)cc2)cc1` [Example E5, (1R)-2-((2S)-2-(4-(4′-(2-((2S)-1-((2R)-2-(dimethylamino)-2-phenylacetyl)-2-pyrrolidinyl)-1H-imidazol-4-yl)-4-biphenylyl)-5-methyl-1H-imidazol-2-yl)-1-pyrrolidinyl)-N,N-dimethyl-2-oxo-1-phenylethanamine], the EC50 was in the range of 0.001 to 0.999 nM.

On to `CCN(CC)[C@@H](C(=O)N1CCC[C@H]1c1ncc(-c2ccc(-c3ccc(-c4nc([C@@H]5CCCN5C(=O)[C@@H](c5ccccc5)N(CC)CC)[nH]c4C)cc3)cc2)[nH]1)c1ccccc1` [Example E5a, (1R)-2-((2S)-2-(4-(4′-(2-((2S)-1-((2R)-2-(diethylamino)-2-phenylacetyl)-2-pyrrolidinyl)-1H-imidazol-4-yl)-4-biphenylyl)-5-methyl-1H-imidazol-2-yl)-1-pyrrolidinyl)-N,N-diethyl-2-oxo-1-phenylethanamine], for which the EC50 fell in the range of 0.001 to 0.999 nM.

Turning to `Cc1[nH]c([C@@H]2CCCN2C(=O)[C@@H](c2ccccc2)N2CCCCC2)nc1-c1ccc(-c2ccc(-c3cnc([C@@H]4CCCN4C(=O)[C@@H](c4ccccc4)N4CCCCC4)[nH]3)cc2)cc1` [Example E5b, 1-((1R)-2-((2S)-2-(4-(4′-(4-methyl-2-((2S)-1-((2R)-2-phenyl-2-(1-piperidinyl)acetyl)-2-pyrrolidinyl)-1H-imidazol-5-yl)-4-biphenylyl)-1H-imidazol-2-yl)-1-pyrrolidinyl)-2-oxo-1-phenylethyl)piperidine], the concentration for a half-maximal effect (EC50) fell in the range of 0.001 to 0.999 nM.

As to `COC(=O)N[C@@H](C(=O)N1CCC[C@H]1c1ncc(-c2ccc(-c3ccc(-c4nc([C@@H]5CCCN5C(=O)[C@H](NC(=O)OC)c5ccccc5)[nH]c4C)cc3)cc2)[nH]1)c1ccccc1` [Example E5c, methyl ((1R)-2-((2S)-2-(4-(4′-(2-((2S)-1-((2R)-2-((methoxycarbonyl)amino)-2-phenylacetyl)-2-pyrrolidinyl)-1H-imidazol-4-yl)-4-biphenylyl)-5-methyl-1H-imidazol-2-yl)-1-pyrrolidinyl)-2-oxo-1-phenylethyl)carbamate], the EC50 was 0.001 to 0.999 nM.

For `COC(=O)N[C@@H](C)C(=O)N1CCC[C@H]1c1ncc(-c2ccc(-c3ccc(-c4nc([C@@H]5CCCN5C(=O)[C@H](C)NC(=O)OC)[nH]c4C)cc3)cc2)[nH]1` [Example E5d, methyl ((1S)-2-((2S)-2-(4-(4′-(2-((2S)-1-(N-(methoxycarbonyl)-L-alanyl)-2-pyrrolidinyl)-4-methyl-1H-imidazol-5-yl)-4-biphenylyl)-1H-imidazol-2-yl)-1-pyrrolidinyl)-1-methyl-2-oxoethyl)carbamate], the EC50 was in the range of 0.001 to 0.999 nM.

Regarding `COC(=O)N[C@H](C(=O)N1CCC[C@H]1c1ncc(-c2ccc(-c3ccc(-c4nc([C@@H]5CCCN5C(=O)[C@@H](NC(=O)OC)C(C)C)[nH]c4C)cc3)cc2)[nH]1)C(C)C` [Example E5e, methyl ((1S)-1-(((2S)-2-(4-(4′-(2-((2S)-1-((2S)-2-((methoxycarbonyl)amino)-3-methylbutanoyl)-2-pyrrolidinyl)-1H-imidazol-4-yl)-4-biphenylyl)-5-methyl-1H-imidazol-2-yl)-1-pyrrolidinyl)carbonyl)-2-methylpropyl)carbamate], the EC50 lay in the range of 0.001 to 0.999 nM.

Take `Cc1nc([C@@H]2CCCN2C(=O)[C@@H](c2ccccc2)N(C)C)[nH]c1-c1ccc(-c2ccc(-c3nc([C@@H]4CCCN4C(=O)[C@@H](c4ccccc4)N(C)C)[nH]c3C)cc2)cc1` [Example E5g, (1R,1′R)-2,2′-(4,4′-biphenyldiylbis((4-methyl-1H-imidazole-5,2-diyl)(2S)-2,1-pyrrolidinediyl))bis(N,N-dimethyl-2-oxo-1-phenylethanamine)]: the EC50 is 0.001 to 0.999 nM.

On to `CCN(CC)[C@@H](C(=O)N1CCC[C@H]1c1nc(-c2ccc(-c3ccc(-c4[nH]c([C@@H]5CCCN5C(=O)[C@@H](c5ccccc5)N(CC)CC)nc4C)cc3)cc2)c(C)[nH]1)c1ccccc1` [Example E5h, (1R,1′R)-2,2′-(4,4′-biphenyldiylbis((4-methyl-1H-imidazole-5,2-diyl)(2S)-2,1-pyrrolidinediyl))bis(N,N-diethyl-2-oxo-1-phenylethanamine)], for which the EC50 lay in the range of 0.001 to 0.999 nM.

In the case of `Cc1nc([C@@H]2CCCN2C(=O)[C@@H](c2ccccc2)N2CCCCC2)[nH]c1-c1ccc(-c2ccc(-c3nc([C@@H]4CCCN4C(=O)[C@@H](c4ccccc4)N4CCCCC4)[nH]c3C)cc2)cc1` [Example E5i, 1,1′-(4,4′-biphenyldiylbis((4-methyl-1H-imidazole-5,2-diyl)(2S)-2,1-pyrrolidinediyl((1R)-2-oxo-1-phenyl-2,1-ethanediyl)))dipiperidine], the EC50 fell in the range of 0.001 to 0.999 nM.

On to `COC(=O)N[C@@H](C(=O)N1CCC[C@H]1c1nc(-c2ccc(-c3ccc(-c4[nH]c([C@@H]5CCCN5C(=O)[C@H](NC(=O)OC)c5ccccc5)nc4C)cc3)cc2)c(C)[nH]1)c1ccccc1` [Example E5j, dimethyl (4,4′-biphenyldiylbis((4-methyl-1H-imidazole-5,2-diyl)(2S)-2,1-pyrrolidinediyl((1R)-2-oxo-1-phenyl-2,1-ethanediyl)))biscarbamate], for which the EC50 is 0.001 to 0.999 nM.

As to `COC(=O)N[C@@H](C)C(=O)N1CCC[C@H]1c1nc(-c2ccc(-c3ccc(-c4[nH]c([C@@H]5CCCN5C(=O)[C@H](C)NC(=O)OC)nc4C)cc3)cc2)c(C)[nH]1` [Example E5k, methyl ((1S)-2-((2S)-2-(4-(4′-(2-((2S)-1-(N-(methoxycarbonyl)-L-alanyl)-2-pyrrolidinyl)-5-methyl-1H-imidazol-4-yl)-4-biphenylyl)-5-methyl-1H-imidazol-2-yl)-1-pyrrolidinyl)-1-methyl-2-oxoethyl)carbamate], the EC50 lay in the range of 0.001 to 0.999 nM.

As to `COC(=O)N[C@H](C(=O)N1CCC[C@H]1c1nc(-c2ccc(-c3ccc(-c4[nH]c([C@@H]5CCCN5C(=O)[C@@H](NC(=O)OC)C(C)C)nc4C)cc3)cc2)c(C)[nH]1)C(C)C` [Example E5l, methyl ((1S)-1-(((2S)-2-(4-(4′-(2-((2S)-1-((2S)-2-((methoxycarbonyl)amino)-3-methylbutanoyl)-2-pyrrolidinyl)-4-methyl-1H-imidazol-5-yl)-4-biphenylyl)-5-methyl-1H-imidazol-2-yl)-1-pyrrolidinyl)carbonyl)-2-methylpropyl)carbamate], the EC50 lay within 0.001 to 0.999 nM.

Turning to `COC(=O)N[C@@H](C(=O)N1CCC[C@@H]1c1ncc(-c2ccc(-c3ccc(-c4cnc([C@@H]5CC[C@H](c6ccccc6)N5C(=O)[C@H](NC(=O)OC)c5ccccc5)[nH]4)cc3)cc2)[nH]1)c1ccccc1` [Example F6, methyl ((1R)-2-((2R)-2-(5-(4′-(2-((2S,5R)-1-((2R)-2-((methoxycarbonyl)amino)-2-phenylacetyl)-5-phenyl-2-pyrrolidinyl)-1H-imidazol-5-yl)-4-biphenylyl)-1H-imidazol-2-yl)-1-pyrrolidinyl)-2-oxo-1-phenylethyl)carbamate], the concentration for a half-maximal effect (EC50) was in the range of 0.001 to 0.999 nM.

In the case of `CCN[C@@H](C(=O)N1CCC[C@H]1c1nc(-c2ccc(-c3ccc(-c4cnc([C@@H]5CCCN5C(=O)[C@H](NCC)c5ccccc5)[nH]4)cc3)cc2)c[nH]1)c1ccccc1` [Example F14, (1R)-N-ethyl-2-((2S)-2-(4-(4′-(2-((2S)-1-((2R)-2-(ethylamino)-2-phenylacetyl)-2-pyrrolidinyl)-1H-imidazol-5-yl)-4-biphenylyl)-1H-imidazol-2-yl)-1-pyrrolidinyl)-2-oxo-1-phenylethanamine], the EC50 fell in the range of 0.001 to 0.999 nM.

With `CN[C@@H](C(=O)N1CCC[C@H]1c1nc(-c2ccc(-c3ccc(-c4cnc([C@@H]5CCCN5C(=O)[C@H](NC)c5ccccc5)[nH]4)cc3)cc2)c[nH]1)c1ccccc1` [Example F15, (1R)-N-methyl-2-((2S)-2-(4-(4′-(2-((2S)-1-((2R)-2-(methylamino)-2-phenylacetyl)-2-pyrrolidinyl)-1H-imidazol-5-yl)-4-biphenylyl)-1H-imidazol-2-yl)-1-pyrrolidinyl)-2-oxo-1-phenylethanamine], the EC50 was 0.001 to 0.999 nM.

In the case of `CCCN[C@@H](C(=O)N1CCC[C@H]1c1nc(-c2ccc(-c3ccc(-c4cnc([C@@H]5CCCN5C(=O)[C@H](NCCC)c5ccccc5)[nH]4)cc3)cc2)c[nH]1)c1ccccc1` [Example F16, N-((1R)-2-oxo-1-phenyl-2-((2S)-2-(4-(4′-(2-((2S)-1-((2R)-2-phenyl-2-(propylamino)acetyl)-2-pyrrolidinyl)-1H-imidazol-5-yl)-4-biphenylyl)-1H-imidazol-2-yl)-1-pyrrolidinyl)ethyl)-1-propanamine], the EC50 is 0.001 to 0.999 nM.
